Reference: patent US20250296938A1, “Compounds that Interact with the Ras Superfamily for the Treatment of Cancers, Inflammatory Diseases, Rasopathies, and Fibrotic Disease” (SHY Therapeutics, LLC, priority 2018, published 2025)

What was measured:
AKT phosphorylation = experiment: Western AKT cell-based phosphorylation assay, PANC-1; conditions: Homo sapiens
Method: Human tumor-derived pancreatic cancer cell line Panc-1 was purchased from American Type Culture Collection and grown in complete DMEM-High Glucose supplemented with penicillin (100 U/mL), streptomycin (100 μg/mL), and 10% heat-inactivated FBS at 37° C. in a humidified incubator with 5% CO2.
(§1) Method: Cells were plated at 350000 cells/well density in a 12-well plate, allowed 3 hours to adhere to the plate, then starved in the appropriate medium in the presence of 0.5% FBS overnight. The small molecules to be tested were added to the cells in the final concentration of 10 μM in the presence of 0.3% DMSO for 6 hours incubation at 37° C. Next, cells were stimulated with 1.5 ng/ml EGF for 15 minutes then cells were lysed with lysis buffer containing 1% Triton X-100, EDTA, and Halt™ Protease & Phosphatase Inhibitor Cocktail (Thermo Scientific). Protein concentration was assessed by BCA protein assay (Thermo Scientific). Phosphorylation level of Akt was determined by western blot.
(§2) Western blot protocol: Equal amounts of protein (15-50 μg) were separated by SDS-PAGE and transferred to nitrocellulose membranes (Invitrogen by Thermo Fisher Scientific). The membrane was stained with Ponceau S Stain (Boston BioProducts) to verify uniform protein loading. Membranes were blocked with 10% milk and phosphorylation levels of Akt were assessed by incubating overnight at 4° C. with anti-phospho-Akt (Ser473) antibody (Cell Signaling) followed by HRP-conjugated secondary antibody (Jackson Immunoresearch, West Grove, PA). Bands were incubated in Amersham ECL Prime Western Blotting Detection Reagent (GE Healthcare) and visualized using the ChemiDoc MP imaging system (Bio-Rad).

MAPK phosphorylation = experiment: MAPK cell-based phosphorylation assay (ELISA or Western), PANC-1; conditions: Homo sapiens
Method: Cell lines: Tumor-derived pancreatic cancer cell line PANC-1 was purchased from ATCC and were and grown in DMEM-High Glucose supplemented with penicillin (100 U/mL), streptomycin (100 μg/mL), and 10% heat-inactivated FBS at 37° C. in a humidified incubator with 5% CO2.
Method: Cells were plated at 7500 cells/well density in a 96-well plate, allowed 3 hours to adhere to the plate, then starved in DMEM plus 0.5% FBS overnight. The small molecules to be tested were added to the cells in the final concentration of 10 μM in the presence of 0.3% DMSO for 6 hours incubation at 37° C. For IC50 value determination, serial dilutions of compounds were added to cells under the same conditions. Next, cells were stimulated with 1.5 ng/mL EGF for 15 minutes followed by cell fixation with 4% formaldehyde in PBS at room temperature for 20 minutes. Cell-direct ELISA determined phosphorylation level of MAPK.
Cell-direct ELISA: For each well, cells were permeabilized with 0.1% PBS-Triton X-100, quenched with 0.06% H2O2 in 0.1% PBS-Triton X-100, and probed with anti-phospho-MAPK antibodies (R&D Systems) followed by HRP-conjugated secondary antibody (Jackson Immunoresearch, West Grove, PA). Next, a 50 μM solution of the fluorescent substrate AmpliFlu Red (Sigma) was added and incubated at RT for 20 minutes. At the end of the incubation time, phosphorylation level of MAPK was determined by measuring fluorescence at 595 nm using SpectraMax M3 plate reader (Molecular Devices).
(§3) Cell lines: Human NSCLC cells NCI-H1975 and NCI-H1299, and tumor-derived pancreatic cancer cell lines Panc-1, MIA-PaCa-2, and BxPC3, were all purchased from American Type Culture Collection and grown in complete RPMI medium (BxPC3, NCI-H1975 and NCI-H1299) or DMEM-High Glucose (Panc1 and MIA-PaCa-2), supplemented with penicillin (100 U/mL), streptomycin (100 μg/mL), and 10% heat-inactivated FBS at 37° C. in a humidified incubator with 5% CO2.
as §1, with “C. For IC50 value determination, serial dilutions of compounds were added to cells under the same conditions.” for “C.”, “MAPK” for “Akt”
as §2, with “MAPK” for “Akt”, “anti-phospho-p44/42 (Thr202/Tyr204)” for “anti-phospho-Akt (Ser473)”

[1] = test system: MIA PaCa-2 pancreatic cancer cell line; experiment: Cell proliferation assay (DAPI); type: cell-based; conditions: Homo sapiens, MIA PaCa-2 (Table 5A); for inhibition at 10 µM: read-out: % Inhibition of cell proliferation, MIA PaCa-2 % inh
Method: as §3, with “MIA-PACA2,” for “MIA-PaCa-2,”
Method: Cells were plated at 2000 to 5000 cells/well density in 96-wells plate and cultured ON. Small molecules to be tested were added to the cells in the final concentration of 10 µM in the presence of 0.3% DMSO and 10% FBS, and incubated for 2-4 days at 37° C. in a humidified incubator with 5% CO2. For IC50 value determination, serial dilutions of compounds were added to cells under the same conditions.
Assay: At the end of the incubation period, cell cultures were fixed with a 50-50 mixture (v/v) acetone-methanol for 10 minutes at −20° C., followed by rehydration in PBS for 10 minutes at room temperature. DNA total content was determined by staining cells with DAPI (1 ug/ml) in PBS for 10 minutes at room temperature, followed by 3 washes with PBS. After staining, DAPI fluorescence was recorded (358 nm excitation/461 nm emission) with the 96-well plate reader Molecular Devices Spectramax M3; degree of small molecule-dependent proliferation inhibition was calculated from raw data.

[2] = 6 hours, EGF stimulation, PANC-1

Row | SMILES | inhibition at 10 µM (AKT phosphorylation; [2]) [%] | inhibition at 10 µM (MAPK phosphorylation; [2]) [%] | further results
1 | COc1cccc(-c2sc3nc(C4=NC(C)=NC4C)nc(N[C@@H]4CC[C@H](OC)C4)c3c2C)c1F (stereo partly shown) | – | – | inhibition at 10 µM (AKT phosphorylation; PANC-1 (Table 4C)): 0%; inhibition at 10 µM (MAPK phosphorylation; PANC-1 (Table 4C)): 76 to 100%
2 | CO[C@H]1CC[C@@H](Nc2nc(-c3nccn3C)nc3sc(-c4cccc5[nH]ncc45)c(C)c23)C1 | – | – | inhibition at 10 µM (AKT phosphorylation; PANC-1 (Table 4C)): 0%; inhibition at 10 µM (MAPK phosphorylation; PANC-1 (Table 4C)): 76 to 100%
3 | Cn1ccc(-c2sc3nc(-c4nccn4C)nc(N[C@@H]4CC[C@H](O)C4)c3c2-c2ccccc2)n1 (racemic) [drawing 509] | – | – | inhibition at 10 µM (AKT phosphorylation; PANC-1 (Table 4C)): 0%; inhibition at 10 µM (MAPK phosphorylation; PANC-1 (Table 4C)): 26 to 50%
4 | COc1cccc(-c2csc3c(O)nc(-c4nccn4C)nc23)c1Cl [drawing 386] | 0 | 26 to 50 | –
5 | Cn1ccnc1-c1nc(O)c2scc(-c3ccccn3)c2n1 [drawing 387] | 0 | 0 | –
6 | Oc1nc(-c2ncc3n2CCCC3)nc2c(-c3ccccn3)csc12 [drawing 388] | 0 | 0 | –
7 | Oc1nc(-c2cn3ccccc3n2)nc2c(-c3ccccn3)csc12 [drawing 389] | 0 | 26 to 50 | –
8 | COCCn1ccnc1-c1nc(O)c2scc(-c3ccccn3)c2n1 [drawing 390] | 0 | 51 to 75 | –
9 | Cc1cc(Cn2ccnc2-c2nc(O)c3scc(-c4ccccn4)c3n2)on1 [drawing 391] | 0 | 0 | –
10 | Oc1nc(-c2nccn2Cc2ccccn2)nc2c(-c3ccccn3)csc12 [drawing 392] | 0 | 51 to 75 | –
11 | COc1cccc(Cn2ccnc2-c2nc(O)c3scc(-c4ccccn4)c3n2)c1 [drawing 393] | 0 | 51 to 75 | –
12 | Cc1cnc(-c2nc(O)c3scc(-c4ccccn4)c3n2)n1C [drawing 394] | 0 | 0 | –
13 | Cc1cn(C)c(-c2nc(O)c3scc(-c4ccccn4)c3n2)n1 [drawing 395] | 0 | 0 | –
14 | Oc1nc(-c2ncc3ccccn23)nc2c(-c3ccccn3)csc12 [drawing 396] | 0 | 0 | –
15 | Oc1nc(-c2cn3cccnc3n2)nc2c(-c3ccccn3)csc12 [drawing 397] | 0 | 0 | –
16 | Oc1nc(-c2cn(-c3ccccc3)cn2)nc2c(-c3ccccn3)csc12 [drawing 398] | 0 | 0 | –
17 | COc1ccc(Cn2cnc(-c3nc(O)c4scc(-c5ccccn5)c4n3)c2)cc1 [drawing 399] | 0 | 51 to 75 | –

Row | SMILES | inhibition at 10 µM (AKT phosphorylation; [2]) [%] | inhibition at 10 µM (MAPK phosphorylation; [2]) [%] | further results
18 | COCCCNc1nc(-c2nccn2C)nc2sc(-c3ccn(C)n3)c(-c3ccccc3)c12 [drawing 400] | 0 | 26 to 50 | –
19 | COCCCN(C)c1nc(-c2nccn2C)nc2sc(-c3ccn(C)n3)c(-c3ccccc3)c12 [drawing 401] | 0 | 51 to 75 | –
20 | COCC(C)Nc1nc(-c2nccn2C)nc2sc(-c3ccn(C)n3)c(-c3ccccc3)c12 (stereo not shown) [drawing 402] | 0 | 51 to 75 | –
21 | COC1CCN(c2nc(-c3nccn3C)nc3sc(-c4ccn(C)n4)c(-c4ccccc4)c23)C1 (stereo not shown) [drawing 403] | 0 | 1 to 25 | –
22 | Cn1ccc(-c2sc3nc(-c4nccn4C)nc(NC4CCOCC4)c3c2-c2ccccc2)n1 [drawing 404] | 1 to 25 | 1 to 25 | –
23 | Cn1ccc(-c2sc3nc(-c4nccn4C)nc(NCC4CCOC4)c3c2-c2ccccc2)n1 (stereo not shown) [drawing 405] | 0 | 1 to 25 | –
24 | Cn1ccc(-c2sc3nc(-c4nccn4C)nc(N4CCC5(CCOC5)C4)c3c2-c2ccccc2)n1 (stereo not shown) [drawing 409] | 0 | 0 | –
25 | COc1cccc(-c2sc3nc(-c4nccn4C)nc(N4CCC(OC)C4)c3c2-c2ccccc2)c1F (stereo not shown) [drawing 473] | – | – | IC50 (MAPK phosphorylation; PANC-1): > 1000 nM
26 | CO[C@H]1CC[C@@H](Nc2nc(-c3nccn3C)nc3sc(-c4ccn(C(C)C)n4)c(-c4ccccc4)c23)C1 [drawing 475] | – | – | IC50 (MAPK phosphorylation; PANC-1): > 1000 nM
27 | COCCNC(=O)c1sc2nc(-c3nccn3C)nc(N[C@H]3C[C@@H](OC)C3)c2c1-c1ccccc1 [drawing 656] | – | – | inhibition at 10 µM [1]: 26 to 50%; IC50 [1]: > 1000 nM
28 | CO[C@H]1C[C@@H](Nc2nc(-c3nccn3C)nc3sc(C(=O)N4CCOCC4)c(-c4ccccc4)c23)C1 [drawing 657] | – | – | inhibition at 10 µM [1]: 26 to 50%; IC50 [1]: > 1000 nM
29 | COC1CCN(C(=O)c2sc3nc(-c4nccn4C)nc(N[C@H]4C[C@@H](OC)C4)c3c2-c2ccccc2)C1 (stereo partly shown) [drawing 658] | – | – | inhibition at 10 µM [1]: 26 to 50%; IC50 [1]: > 1000 nM
30 | CO[C@H]1CC[C@@H](Nc2nc(-c3nccn3C)nc3sc(C(=O)NC(C)C)c(-c4ccccc4)c23)C1 [drawing 659] | – | – | inhibition at 10 µM [1]: 76 to 100%; IC50 [1]: > 1000 nM
31 | COCCNC(=O)c1sc2nc(-c3nccn3C)nc(N[C@@H]3CC[C@H](OC)C3)c2c1-c1ccccc1 [drawing 660] | – | – | inhibition at 10 µM [1]: 76 to 100%; IC50 [1]: > 1000 nM
32 | CO[C@H]1CC[C@@H](Nc2nc(-c3nccn3C)nc3sc(C(=O)N4CCCC4)c(-c4ccccc4)c23)C1 [drawing 661] | – | – | inhibition at 10 µM [1]: 76 to 100%; IC50 [1]: > 1000 nM
33 | CO[C@H]1CC[C@@H](Nc2nc(-c3nccn3C)nc3sc(C(=O)N4CCOCC4)c(-c4ccccc4)c23)C1 [drawing 662] | – | – | inhibition at 10 µM [1]: 51 to 75%; IC50 [1]: > 1000 nM
